Measurements as given in US20200085789A1, “USE OF A PROTEASOME INHIBITOR FOR THE TREATMENT OF CENTRAL NERVOUS SYSTEM (CNS) CANCERS” (Celgene International II Sàrl, priority 2017, published 2020).

Test: Adverse events and dose-limiting toxicity (NCI-CTCAE v 4.03), MRZ ± BEV in recurrent grade IV malignant glioma patients
Format: in vivo, human
Source text: An adverse event (AE) is any noxious, unintended, or untoward medical occurrence that may appear or worsen in a subject during the course of a study. […] Any worsening (i.e., any clinically significant adverse change in the frequency or intensity of a pre-existing condition) should be considered an AE.
The severity/intensity of AEs will be graded based upon the subject's symptoms according to the current active minor version of the Common Terminology Criteria for Adverse Events ( ).

[1] = MRZ 0.7 mg/m^2 + BEV, Cohort 2 (N = 3)
[2] = MRZ 0.8 mg/m^2 + BEV, Cohorts 3 & 4 (N = 27)
[3] = MRZ 0.8 mg/m^2, + BEV N = 27, Monotherapy N = 30
[4] = MRZ 0.8 mg/m^2 Monotherapy (N = 30)

C[C@@]12OC(=O)[C@]1([C@@H](O)[C@@H]1C=CCCC1)NC(=O)[C@@H]2CCCl [MRZ, marizomib]
Grade ≥3 Ataxia related to the labelled drug, patients [1]: 0
Grade ≥3 Confusional State related to the labelled drug, patients [1]: 0
Grade ≥3 Delusion related to the labelled drug, patients [1]: 0
Grade ≥3 Dyspnea related to the labelled drug, patients [1]: 0
Grade ≥3 Embolism related to the labelled drug, patients [1]: 0
Grade ≥3 Fall related to the labelled drug, patients [1]: 0
Grade ≥3 Fatigue related to the labelled drug, patients [1]: 0
Grade ≥3 Hallucination related to the labelled drug, patients [1]: 0
Grade ≥3 Headache related to the labelled drug, patients [1]: 0
Grade ≥3 Hypertension related to the labelled drug, patients [1]: 0
Grade ≥3 Hyponatremia related to the labelled drug, patients [1]: 0
Grade ≥3 Insomnia related to the labelled drug, patients [1]: 0
Grade ≥3 Intracranial Hemorrhage related to the labelled drug, patients [1]: 0
Grade ≥3 Optic Nerve Disorder related to the labelled drug, patients [1]: 0
Grade ≥3 Proteinuria related to the labelled drug, patients [1]: 0
Grade ≥3 Ataxia related to the labelled drug, patients [2]: 1
Grade ≥3 Confusional State related to the labelled drug, patients [2]: 0
Grade ≥3 Delusion related to the labelled drug, patients [2]: 1
Grade ≥3 Dyspnea related to the labelled drug, patients [2]: 1
Grade ≥3 Embolism related to the labelled drug, patients [2]: 0
Grade ≥3 Fall related to the labelled drug, patients [2]: 1
Grade ≥3 Fatigue related to the labelled drug, patients [2]: 1
Grade ≥3 Hallucination related to the labelled drug, patients [2]: 1
Grade ≥3 Headache related to the labelled drug, patients [2]: 3
Grade ≥3 Hypertension related to the labelled drug, patients [2]: 0
Grade ≥3 Hyponatremia related to the labelled drug, patients [2]: 1
Grade ≥3 Insomnia related to the labelled drug, patients [2]: 1
Grade ≥3 Intracranial Hemorrhage related to the labelled drug, patients [2]: 0
Grade ≥3 Optic Nerve Disorder related to the labelled drug, patients [2]: 0
Grade ≥3 Proteinuria related to the labelled drug, patients [2]: 0
Anaemia [3]: (20.0%)
Anaemia, patients [3]: 6
Ataxia [3]: (20.0%)
Ataxia, patients [3]: 6
Confusional state [3]: (23.3%)
Confusional state, patients [3]: 7
Constipation [3]: (30.0%)
Constipation, patients [3]: 9
Diarrhoea [3]: (23.3%)
Diarrhoea, patients [3]: 7
Dizziness [3]: (16.7%)
Dizziness, patients [3]: 5
Dysarthria [3]: (16.7%)
Dysarthria, patients [3]: 5
Dysphonia [3]: (3.3%)
Dysphonia, patients [3]: 1
Epistaxis [3]: (6.7%)
Epistaxis, patients [3]: 2
Fall [3]: (13.3%)
Fall, patients [3]: 4
Fatigue [3]: (63.3%)
Fatigue, patients [3]: 19
Hallucination [3]: (40.0%)
Hallucination, patients [3]: 12
Headache [3]: (40.0%)
Headache, patients [3]: 12
Hyperglycaemia [3]: (27.6%)
Hyperglycaemia, patients [3]: 8
Hypertension [3]: (13.3%)
Hypertension, patients [3]: 4
Hypokalemia [3]: (27.6%)
Hypokalemia, patients [3]: 8
Infusion site pain [3]: (10.0%)
Infusion site pain, patients [3]: 3
Insomnia [3]: (46.7%)
Insomnia, patients [3]: 14
Nausea [3]: (36.7%)
Nausea, patients [3]: 11
Platelet count decreased [3]: (23.3%)
Platelet count decreased, patients [3]: 7
Vomiting [3]: (30.0%)
Vomiting, patients [3]: 9
Anaemia MRZ Related [4]: (16.7%
Anaemia MRZ Related, patients [4]: 5
Ataxia MRZ Related [4]: (16.7%)
Ataxia MRZ Related, patients [4]: 5
Confusional state MRZ Related [4]: (20.0%)
Confusional state MRZ Related, patients [4]: 6
Constipation MRZ Related [4]: (20.0%)
Constipation MRZ Related, patients [4]: 6
Diarrhoea MRZ Related [4]: (23.3) %
Diarrhoea MRZ Related, patients [4]: 7
Dizziness MRZ Related [4]: (10.0%)
Dizziness MRZ Related, patients [4]: 3
Dysphonia MRZ Related, patients [4]: 0
Epistaxis MRZ Related [4]: (3.3%)
Epistaxis MRZ Related, patients [4]: 1
Fall MRZ Related [4]: (3.3%)
Fall MRZ Related, patients [4]: 1
Fatigue MRZ Related [4]: (60.0%)
Fatigue MRZ Related, patients [4]: 18
Hallucination MRZ Related [4]: (36.7%)
Hallucination MRZ Related, patients [4]: 11
Headache MRZ Related [4]: (36.7%)
Headache MRZ Related, patients [4]: 11
Hypertension MRZ Related [4]: 93.3%)
Hypertension MRZ Related, patients [4]: 1
Infusion site pain MRZ Related [4]: (6.7%)
Infusion site pain MRZ Related, patients [4]: 2
Muscular weakness MRZ Related, patients [4]: 0
Nausea MRZ Related [4]: (30.0%)
Nausea MRZ Related, patients [4]: 9
Platelet count decreased MRZ Related, patients [4]: 0
Stomatitis MRZ Related, patients [4]: 0
Upper-airway cough syndrome MRZ Related, patients [4]: 0
Vomiting MRZ Related [4]: (23.3) %
Vomiting MRZ Related, patients [4]: 7
Anemia: patients, Total (Part 1 N = 36, Part 2 N = 30): 6
Anemia: patients, worst Grade 1 (Part 1 N = 36, Part 2 N = 30): 5
Anemia: patients, worst Grade 2 (Part 1 N = 36, Part 2 N = 30): 1
Ataxia: patients, Total (Part 1 N = 36, Part 2 N = 30): 8
Ataxia: patients, worst Grade 1 (Part 1 N = 36, Part 2 N = 30): 3
Ataxia: patients, worst Grade 2 (Part 1 N = 36, Part 2 N = 30): 5
Confusional State: patients, Total (Part 1 N = 36, Part 2 N = 30): 7
Confusional State: patients, worst Grade 1 (Part 1 N = 36, Part 2 N = 30): 3
Confusional State: patients, worst Grade 2 (Part 1 N = 36, Part 2 N = 30): 4
Constipation: patients, Total (Part 1 N = 36, Part 2 N = 30): 10
Constipation: patients, worst Grade 1 (Part 1 N = 36, Part 2 N = 30): 10
Diarrhea: patients, Total (Part 1 N = 36, Part 2 N = 30): 7
Diarrhea: patients, worst Grade 1 (Part 1 N = 36, Part 2 N = 30): 6
Diarrhea: patients, worst Grade 3 (Part 1 N = 36, Part 2 N = 30): 1
Dizziness: patients, Total (Part 1 N = 36, Part 2 N = 30): 5
Dizziness: patients, worst Grade 1 (Part 1 N = 36, Part 2 N = 30): 4
Dizziness: patients, worst Grade 2 (Part 1 N = 36, Part 2 N = 30): 1
Dysphonia: patients, Total (Part 1 N = 36, Part 2 N = 30): 1
Dysphonia: patients, worst Grade 1 (Part 1 N = 36, Part 2 N = 30): 1
Epistaxis: patients, Total (Part 1 N = 36, Part 2 N = 30): 2
Epistaxis: patients, worst Grade 1 (Part 1 N = 36, Part 2 N = 30): 2
Fall: patients, Total (Part 1 N = 36, Part 2 N = 30): 4
Fall: patients, worst Grade 1 (Part 1 N = 36, Part 2 N = 30): 3
